Measured values from paper PMC4350332 (Oncotarget, 2014).
pKd: −log10 of the molar value.

Tests used:
PDK = conditions: stated in discussion, no own experiment; cited from earlier work
PDK-1 = PDK-1 (Homo sapiens, UniProt Q15118); experiment: PDK-1 fluorescence polarization assay (fluorescein-labelled ATP site probe); format: binding; design: PDK-1: residues 30-436; made in house; host or cells: E. coli BL21; conditions: titration with a probe concentration of 10 nM; read-out: Kd of PDK-1 protein with the probe
Chain of PDK-1 (Q15118 30-436): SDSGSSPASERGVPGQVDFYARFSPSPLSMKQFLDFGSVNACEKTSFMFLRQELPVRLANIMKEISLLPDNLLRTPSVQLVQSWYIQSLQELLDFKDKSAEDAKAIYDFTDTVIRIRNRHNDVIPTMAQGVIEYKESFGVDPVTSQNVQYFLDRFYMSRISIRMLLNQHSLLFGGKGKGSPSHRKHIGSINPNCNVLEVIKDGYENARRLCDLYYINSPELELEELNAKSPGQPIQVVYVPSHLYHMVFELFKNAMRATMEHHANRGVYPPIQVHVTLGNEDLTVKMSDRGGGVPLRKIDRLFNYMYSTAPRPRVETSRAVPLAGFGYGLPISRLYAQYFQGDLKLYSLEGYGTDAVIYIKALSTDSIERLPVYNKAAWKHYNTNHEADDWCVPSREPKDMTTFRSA
Protocol: carbamoyl]-2-(6-hydroxy-3-oxo-3H-xanthen-9-yl)benzoic acid), which binds to the ATP site of PDK resulting in an increase in anisotropy.
The HSP-90ß FP assay was conducted as previously described.

| Compound | Concentrations required to observe modulation of glycolytic activity and cytotoxicity (PDK) | pKd (PDK-1) |
| --- | --- | --- |
| O=C(O)C(Cl)Cl [DCA] | 5000 to 20000 µM | – |
| CCNC(=O)c1noc(-c2cc(Cl)c(O)cc2O)c1-c1ccc(CNC(=O)c2ccc(-c3c4ccc(=O)cc-4oc4cc(O)ccc34)c(C(=O)O)c2)cc1 [VER-160364, 5-[({4-[5-(5-chloro-2,4-dihydroxyphenyl)-3-(ethylcarbamoyl)-1,2-oxazol-4-yl]phenyl}methyl)carbamoyl]-2-(6-hydroxy-3-oxo-3H-xanthen-9-yl)benzoic acid] | – | 7.52 |
